Data taken from the supplement of paper PMC10307832.

Assays:
Assay in all cases: relative viability (nuclei count vs DMSO), 5 days (fraction); higher = more cells survive
XMD13-2 + Dasatinib = compound: C1CC1C(=O)NC2=NNC3=C2C=CC(=C3)C4=CC(=CC=C4)C(=O)NC5CC5 [XMD13-2] + Cc1nc(Nc2ncc(C(=O)Nc3c(C)cccc3Cl)s2)cc(N2CCN(CCO)CC2)n1 [Dasatinib] (partner 0.075 µM)
Method in brief: (§1)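 Lung cancer cell lines in 1536-well plates were dosed by pin tool the day after seeding, either with one drug alone or with a fixed anchor-drug dose plus five library-drug doses (not always all listed) in √10 steps. After 5 days, cells were fixed and their nuclei stained in one step (final 0.05% Triton X-100, 1% formaldehyde, 1 ug/ml Hoechst), then counted on 4× images. Relative viability is the nuclei count in treated wells divided by that in vehicle wells. Values are medians of duplicate plates.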

XMD13-2 + Trametinib = compound: C1CC1C(=O)NC2=NNC3=C2C=CC(=C3)C4=CC(=CC=C4)C(=O)NC5CC5 [XMD13-2] + CC(=O)Nc1cccc(-n2c(=O)n(C3CC3)c(=O)c3c(Nc4ccc(I)cc4F)n(C)c(=O)c(C)c32)c1 [Trametinib] (partner 0.02 µM)
Method in brief: as §1

ALW-II-49-7 + Trametinib = compound: Cc1ccc(C(=O)Nc2cccc(C(F)(F)F)c2)cc1Nc1cncc(C(N)=O)c1 [ALW-II-49-7] + CC(=O)Nc1cccc(-n2c(=O)n(C3CC3)c(=O)c3c(Nc4ccc(I)cc4F)n(C)c(=O)c(C)c32)c1 [Trametinib] (partner 0.02 µM)
Method in brief: as §1

XMD13-2 + Tozasertib = compound: C1CC1C(=O)NC2=NNC3=C2C=CC(=C3)C4=CC(=CC=C4)C(=O)NC5CC5 [XMD13-2] + Cc1cc(Nc2cc(N3CCN(C)CC3)nc(Sc3ccc(NC(=O)C4CC4)cc3)n2)n[nH]1 [Tozasertib] (partner 0.1 µM)
Method in brief: as §1

| Cell Line | relative viability (XMD13-2 + Dasatinib; first compound 0.05 µM) | relative viability (XMD13-2 + Dasatinib; first compound 0.1581 µM) | relative viability (XMD13-2 + Dasatinib; first compound 0.5 µM) | relative viability (XMD13-2 + Dasatinib; first compound 1.581 µM) | relative viability (XMD13-2 + Dasatinib; first compound 5 µM) | relative viability (XMD13-2 + Trametinib; first compound 0.05 µM) | relative viability (XMD13-2 + Trametinib; first compound 0.1581 µM) | relative viability (XMD13-2 + Trametinib; first compound 0.5 µM) | relative viability (XMD13-2 + Trametinib; first compound 1.581 µM) | relative viability (XMD13-2 + Trametinib; first compound 5 µM) | relative viability (ALW-II-49-7 + Trametinib; first compound 0.08 µM) | relative viability (ALW-II-49-7 + Trametinib; first compound 0.253 µM) | relative viability (ALW-II-49-7 + Trametinib; first compound 0.8 µM) | relative viability (ALW-II-49-7 + Trametinib; first compound 2.53 µM) | relative viability (ALW-II-49-7 + Trametinib; first compound 8 µM) | relative viability (XMD13-2 + Tozasertib; first compound 0.05 µM) | relative viability (XMD13-2 + Tozasertib; first compound 0.1581 µM) | relative viability (XMD13-2 + Tozasertib; first compound 0.5 µM) | relative viability (XMD13-2 + Tozasertib; first compound 1.581 µM) | relative viability (XMD13-2 + Tozasertib; first compound 5 µM) |
| --- | --- | --- | --- | --- | --- | --- | --- | --- | --- | --- | --- | --- | --- | --- | --- | --- | --- | --- | --- | --- |
| LXF-289 | 0.301 | 0.239 | 0.242 | 0.141 | 0.205 | 0.672 | 0.73 | 0.731 | 0.642 | 0.731 | 0.604 | 0.715 | 0.681 | 0.67 | 0.626 | 0.232 | 0.195 | 0.194 | 0.208 | 0.177 |
| NCI-H23 | 0.907 | 0.725 | 0.82 | 0.748 | 0.99 | 0.358 | 0.432 | 0.438 | 0.371 | 0.353 | 0.434 | 0.371 | 0.448 | 0.37 | 0.37 | 0.325 | 0.382 | 0.397 | 0.644 | 0.355 |
| NCI-H322M | 0.237 | 0.239 | 0.24 | 0.263 | 0.283 | 0.396 | 0.51 | 0.446 |  | 0.565 | 0.484 | 0.533 | 0.506 | 0.472 | 0.515 | 0.563 | 0.52 | 0.456 | 0.456 | 0.517 |
| NCI-H358 | 0.201 | 0.162 | 0.142 | 0.174 | 0.171 | 0.128 | 0.127 | 0.132 | 0.13 | 0.135 | 0.117 | 0.123 | 0.142 | 0.14 | 0.119 | 0.126 | 0.121 | 0.102 | 0.114 | 0.0991 |
| NCI-H441 | 0.567 | 0.668 | 0.54 | 0.625 | 0.516 | 0.569 | 0.452 | 0.459 | 0.535 | 0.538 | 0.41 | 0.494 | 0.381 | 0.69 | 0.443 | 0.808 | 0.652 | 0.608 | 0.591 | 0.53 |
| NCI-H460 | 0.636 | 0.466 | 0.525 | 0.578 | 0.626 | 0.288 | 0.13 | 0.209 | 0.195 | 0.167 | 0.133 | 0.17 | 0.142 | 0.118 | 0.101 | 0.529 | 0.407 | 0.472 | 0.474 | 0.415 |
| NCI-H520 | 0.213 | 0.261 | 0.208 | 0.231 | 0.182 | 0.7 | 0.7 | 0.723 | 0.563 | 0.396 | 0.62 | 0.661 | 0.53 | 0.552 | 0.519 | 0.495 | 0.491 | 0.515 | 0.395 | 0.462 |
| NCI-H522 | 0.81 | 0.891 | 0.94 | 0.821 | 0.792 | 0.852 | 0.688 | 0.82 | 0.711 | 0.759 | 0.883 | 0.665 | 0.867 | 0.82 | 0.853 | 0.531 | 0.651 | 0.593 | 0.483 | 0.412 |
| NCI-H596 | 0.683 | 0.571 | 0.578 | 0.713 | 0.664 | 0.826 | 0.857 | 0.965 | 0.954 | 0.798 | 0.684 | 0.786 | 0.769 | 0.791 | 0.912 | 0.901 | 0.942 | 0.816 | 0.89 | 1.03 |
| NCI-H647 | 0.17 | 0.172 | 0.207 | 0.13 | 0.115 | 0.621 | 0.4 | 0.587 | 0.431 | 0.305 | 0.434 | 0.475 | 0.453 | 0.441 | 0.239 | 0.585 | 0.265 | 0.176 | 0.229 | 0.135 |
| NCI-H650 | 0.463 | 0.452 | 0.524 | 0.39 | 0.546 | 1.37 | 1.02 | 1.05 | 0.917 | 0.991 | 0.876 | 1.16 | 0.993 | 0.996 | 0.929 | 0.783 | 0.748 | 0.781 | 0.716 | 0.723 |
| NCI-H661 | 0.973 | 0.96 | 0.811 | 0.737 | 0.523 | 0.538 | 0.614 | 0.665 | 0.615 | 0.409 | 0.529 | 0.606 | 0.521 | 0.567 | 0.53 | 0.335 | 0.307 | 0.33 | 0.36 | 0.427 |
| NCI-H727 | 0.383 | 0.344 | 0.38 | 0.478 | 0.426 | 0.401 | 0.431 | 0.37 | 0.382 | 0.38 | 0.393 | 0.378 | 0.354 | 0.357 | 0.365 | 0.577 | 0.652 | 0.666 | 0.617 | 0.627 |
| NCI-H838 | 0.276 | 0.293 | 0.274 | 0.241 | 0.318 | 0.552 | 0.569 | 0.576 | 0.557 | 0.552 | 0.631 | 0.531 | 0.433 | 0.49 | 0.453 | 0.277 | 0.27 | 0.263 | 0.293 | 0.247 |
| NCI-H1355 | 0.847 | 0.839 | 0.79 | 0.695 | 0.61 | 0.544 | 0.428 | 0.457 | 0.42 | 0.428 | 0.371 | 0.467 | 0.474 | 0.384 | 0.438 | 0.64 | 0.631 | 0.638 | 0.548 | 0.589 |
